Reference: patent publication US20220117938A1, “COMBINATON THERAPY WITH A DON PRODRUG AND AN IMMUNE CHECKPOINT INHIBITOR” (DRACEN PHARMACEUTICALS, INC., priority 2019, published 2022)

System: CT26.WT tumors
Assay: Anti-tumor efficacy of Compound 1 and Compound 1 in combination with anti-PD-1 in the CT26.WT syngeneic model (Example 10)
Assay type: in vivo, mice
Method: Female BALB/c mice were inoculated subcutaneously in the right flank with CT26.WT cells for tumor development. Six days after tumor inoculation, mice with tumor sizes ranging from 30-81 mm^3 (average tumor size 55 mm^3) were selected and assigned into 10 groups using stratified randomization with 8 mice per group based upon their tumor volumes. The treatments were started from the day of randomization (defined as D0), Group 1 was treated with Vehicle control, 10 mpk, SC, qd 5 days on (Mon-Fri)×4 cycles; Group 2 was treated with Anti-PD-1, 10 mpk, IP, q4d×6; Group 3 was treated with Compound 1, 1.4 mpk, SC, qd 5 days on (Mon-Fri)×4 cycles; Group 4 was treated with Compound 1+anti-PD-1, 1.4 mpk+10 mpk, SC, qd 5 days on (Mon-Fri)×4 cycles+IP, q4d×6; Group 5 was treated with Compound 1, 10.5 mpk, IV, biw (Mon, Thu)×4 cycles; Group 6 was treated with Compound 1+anti-PD-1, 10.5 mpk+10 mpk, IV, biw (Mon, Thu)×4 cycles+IP, q4d×6; Group 7 was treated with Compound 1, 7 mpk IV, tiw (Mon, Wed, Fri)×4 cycles; Group 8 was treated with Compound 1+anti-PD-1, 7 mpk+10 mpk, IV, tiw (Mon, Wed, Fri)×4 cycles+IP, q4d×6; Group 9 was treated with Compound 1, 7 mpk IV, tiw (Mon, Tue, Wed)×4 cycles; and Group 10 was treated with Compound 1+anti-PD-1, 7 mpk+10 mpk, IV, tiw (Mon, Tue, Wed)×4 cycles+IP, q4d×6. The tumor sizes were measured three times per week during the treatment. Survival was monitored with tumor volume exceeding 2000 mm^3 as endpoint. The entire study was terminated on D56 after start of the treatment. All treatments were well-tolerated without any adverse effects or significant body weight loss.

[1] = Group 3, 1.4 mpk SC qd Mon-Fri x4 cycles
[2] = Group 3, 1.4 mpk SC qd Mon-Fri x4 cycles, day 14
[3] = Group 5, 10.5 mpk IV biw x4 cycles
[4] = Group 5, 10.5 mpk IV biw x4 cycles, day 14
[5] = Group 7, 7 mpk IV tiw (Mon,Wed,Fri) x4 cycles
[6] = Group 7, 7 mpk IV tiw (Mon,Wed,Fri) x4 cycles, day 14
[7] = Group 9, 7 mpk IV tiw (Mon,Tue,Wed) x4 cycles
[8] = Group 9, 7 mpk IV tiw (Mon,Tue,Wed) x4 cycles, day 14

CC(=O)N[C@@H](Cc1c[nH]c2ccccc12)C(=O)N[C@@H](CCC(=O)C=[N+]=[N-])C(=O)OC(C)C [Compound 1, Isopropyl (S)-2-((S)-2-acetamido-3-(1H-indol-3-yl)propanamido)-6-diazo-5-oxohexanoate]
ILS [1]: 81.0%
MST [1]: 38 days
RTV at day 14 [1]: 3.07 ± 0.38
Tumor Size at day 14 [1]: 172 ± 29 mm^3
Tumor volume (Group 3, 1.4 mpk SC qd Mon-Fri x4 cycles, day 0): 56 ± 5 mm^3
Tumor volume (Group 3, 1.4 mpk SC qd Mon-Fri x4 cycles, day 2): 59 ± 5 mm^3
Tumor volume (Group 3, 1.4 mpk SC qd Mon-Fri x4 cycles, day 11): 103 ± 13 mm^3
T/C [2]: 17.06%
TGI [2]: 88.16%
Tumor volume [2]: 172 ± 29 mm^3
Tumor volume (Group 3, 1.4 mpk SC qd Mon-Fri x4 cycles, day 16): 163 ± 20 mm^3
Tumor volume (Group 3, 1.4 mpk SC qd Mon-Fri x4 cycles, day 18): 191 ± 26 mm^3
Tumor volume (Group 3, 1.4 mpk SC qd Mon-Fri x4 cycles, day 21): 258 ± 25 mm^3
Tumor volume (Group 3, 1.4 mpk SC qd Mon-Fri x4 cycles, day 23): 276 ± 36 mm^3
Tumor volume (Group 3, 1.4 mpk SC qd Mon-Fri x4 cycles, day 25): 278 ± 42 mm^3
Tumor volume (Group 3, 1.4 mpk SC qd Mon-Fri x4 cycles, day 28): 466 ± 62 mm^3
Tumor volume (Group 3, 1.4 mpk SC qd Mon-Fri x4 cycles, day 30): 682 ± 103 mm^3
Tumor volume (Group 3, 1.4 mpk SC qd Mon-Fri x4 cycles, day 32): 1012 ± 189 mm^3
Tumor volume (Group 3, 1.4 mpk SC qd Mon-Fri x4 cycles, day 35): 1417 ± 260 mm^3
ILS [3]: 76.2%
MST [3]: 37 days
RTV at day 14 [3]: 3.21 ± 1.03
Tumor Size at day 14 [3]: 170 ± 51 mm^3
Tumor volume (Group 5, 10.5 mpk IV biw x4 cycles, day 0): 56 ± 5 mm^3
Tumor volume (Group 5, 10.5 mpk IV biw x4 cycles, day 2): 52 ± 5 mm^3
Tumor volume (Group 5, 10.5 mpk IV biw x4 cycles, day 11): 113 ± 24 mm^3
T/C [4]: 17.83%
TGI [4]: 88.39%
Tumor volume [4]: 170 ± 51 mm^3
Tumor volume (Group 5, 10.5 mpk IV biw x4 cycles, day 16): 214 ± 60 mm^3
Tumor volume (Group 5, 10.5 mpk IV biw x4 cycles, day 18): 226 ± 59 mm^3
Tumor volume (Group 5, 10.5 mpk IV biw x4 cycles, day 21): 381 ± 119 mm^3
Tumor volume (Group 5, 10.5 mpk IV biw x4 cycles, day 23): 439 ± 128 mm^3
Tumor volume (Group 5, 10.5 mpk IV biw x4 cycles, day 25): 562 ± 197 mm^3
Tumor volume (Group 5, 10.5 mpk IV biw x4 cycles, day 28): 849 ± 264 mm^3
ILS [5]: 76.2%
MST [5]: 37 days
RTV at day 14 [5]: 3.34 ± 0.97
Tumor Size at day 14 [5]: 201 ± 67 mm^3
Tumor volume (Group 7, 7 mpk IV tiw (Mon,Wed,Fri) x4 cycles, day 0): 55 ± 5 mm^3
Tumor volume (Group 7, 7 mpk IV tiw (Mon,Wed,Fri) x4 cycles, day 2): 61 ± 9 mm^3
Tumor volume (Group 7, 7 mpk IV tiw (Mon,Wed,Fri) x4 cycles, day 11): 111 ± 33 mm^3
T/C [6]: 18.56%
TGI [6]: 85.12%
Tumor volume [6]: 201 ± 67 mm^3
Tumor volume (Group 7, 7 mpk IV tiw (Mon,Wed,Fri) x4 cycles, day 16): 238 ± 94 mm^3
Tumor volume (Group 7, 7 mpk IV tiw (Mon,Wed,Fri) x4 cycles, day 18): 256 ± 101 mm^3
Tumor volume (Group 7, 7 mpk IV tiw (Mon,Wed,Fri) x4 cycles, day 21): 471 ± 261 mm^3
ILS [7]: 92.9%
MST [7]: 40.5 days
RTV at day 14 [7]: 2.32 ± 0.84
Tumor Size at day 14 [7]: 132 ± 46 mm^3
Tumor volume (Group 9, 7 mpk IV tiw (Mon,Tue,Wed) x4 cycles, day 0): 56 ± 4 mm^3
Tumor volume (Group 9, 7 mpk IV tiw (Mon,Tue,Wed) x4 cycles, day 11): 79 ± 19 mm^3
T/C [8]: 12.89%
TGI [8]: 92.20%
Tumor volume [8]: 132 ± 46 mm^3
Tumor volume (Group 9, 7 mpk IV tiw (Mon,Tue,Wed) x4 cycles, day 16): 131 ± 52 mm^3
Tumor volume (Group 9, 7 mpk IV tiw (Mon,Tue,Wed) x4 cycles, day 18): 160 ± 65 mm^3
Tumor volume (Group 9, 7 mpk IV tiw (Mon,Tue,Wed) x4 cycles, day 21): 248 ± 104 mm^3
Tumor volume (Group 9, 7 mpk IV tiw (Mon,Tue,Wed) x4 cycles, day 23): 252 ± 103 mm^3
Tumor volume (Group 9, 7 mpk IV tiw (Mon,Tue,Wed) x4 cycles, day 25): 255 ± 106 mm^3
Tumor volume (Group 9, 7 mpk IV tiw (Mon,Tue,Wed) x4 cycles, day 28): 447 ± 186 mm^3
Tumor volume (Group 9, 7 mpk IV tiw (Mon,Tue,Wed) x4 cycles, day 30): 695 ± 300 mm^3
